Publication PMC3365763 (The Journal of Biological Chemistry, 2012)

Target: T1, TG2 (transglutaminase-2, transglutaminase type 2) (Homo sapiens, UniProt P21980, R19S)
T1 sequence (P21980 1-687 R19S): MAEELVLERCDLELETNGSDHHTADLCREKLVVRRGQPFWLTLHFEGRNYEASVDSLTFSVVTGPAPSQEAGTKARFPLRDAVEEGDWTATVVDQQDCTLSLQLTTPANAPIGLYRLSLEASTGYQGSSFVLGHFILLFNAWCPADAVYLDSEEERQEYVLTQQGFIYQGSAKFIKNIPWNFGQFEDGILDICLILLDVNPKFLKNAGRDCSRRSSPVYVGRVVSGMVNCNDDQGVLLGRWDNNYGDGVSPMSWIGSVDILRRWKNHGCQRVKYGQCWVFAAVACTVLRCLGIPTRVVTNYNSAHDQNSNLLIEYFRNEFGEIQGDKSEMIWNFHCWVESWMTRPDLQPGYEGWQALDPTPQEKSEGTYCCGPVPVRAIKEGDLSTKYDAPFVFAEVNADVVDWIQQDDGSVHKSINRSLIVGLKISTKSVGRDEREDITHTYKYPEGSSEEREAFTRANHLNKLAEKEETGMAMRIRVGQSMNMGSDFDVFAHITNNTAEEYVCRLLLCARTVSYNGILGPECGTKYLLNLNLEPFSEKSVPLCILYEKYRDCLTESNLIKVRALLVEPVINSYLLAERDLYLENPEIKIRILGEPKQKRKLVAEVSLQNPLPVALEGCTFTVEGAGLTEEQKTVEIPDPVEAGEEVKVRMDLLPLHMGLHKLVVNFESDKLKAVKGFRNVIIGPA
Format: biochemical

- IC50: 254 ± 8 µM
Compound: Nc1nc2c(ncn2[C@@H]2O[C@H](COP(=O)(O)OP(=O)(O)OP(=O)(O)O)[C@@H](O)[C@H]2O)c(=O)[nH]1 [GTP]
